Patent publication US20040127472A1, “Use of anecortave acetate for the protection of visual acuity in patients with age related macular degeneration” (priority 2002, published 2004)

Assays:
[1] = tested on: patients with subfoveal choroidal neovascularization (CNV) secondary to AMD; assay: Clinical trial, best-corrected logMAR visual acuity after a single posterior juxtascleral administration; assay type: in vivo; details: for LogMAR Change 1 Line Improved, % of patients / LogMAR Change 1 Line Worsened, % of patients / LogMAR Change 2 Lines Worsened, % of patients / LogMAR Change No Change, % of patients / LogMAR Change ≧2 Lines Improved, % of patients / LogMAR Change ≧3 Lines Worsened (clinically significant vision loss), % of patients: Month 6 vs Baseline
Excerpt: (§1) This ongoing trial was initiated to compare the clinical efficacy of anecortave acetate versus placebo treatment for preservation (maintenance) of vision and inhibition of CNV lesion growth. Patients with a logMAR visual acuity of 0.3 (20/40 Snellen equivalent) to 1.2 (20/320 Snellen equivalent) and primary or recurrent subfoveal choroidal neovascularization (CNV) secondary to AMD with a lesion up to 30.48mm^2 (12 disc areas) in size were enrolled. At Baseline and follow-up visits, best-corrected logMAR visual acuity was obtained on all patients using guidelines previously established for the Early Treatment Diabetic Retinopathy Study. Patient lesion eligibility for this study was determined from standardized fluorescein angiograms at the Digital Angiography Reading Center (DARC) by certified Readers (trained retina specialists) prior to enrollment and treatment. The DARC also evaluated changes from Baseline in the fluorescein angiographic characteristics of the lesions in masked fashion. Each data point represents the average of at least two independent evaluations by DARC Readers. Because all angiographic data for this study is being collected using the same fimdus camera and digital camera systems and stored as uncompressed digital images, the actual lesion surface areas can be more closely approximated in mm^2 rather than requiring the disc area “best-fit” estimates previously used for film angiographic data.
The 128 patients in this double-masked, dose-response study were enrolled and treated between April 1999 and May 2001 by 18 participating sites in the US and EU. Prior to treatment, patients were enrolled and equally randomized to anecortave acetate sterile suspension for injection 30 mg (N=33), 15 mg (N=33), or 3 mg (N=32) or to placebo (vehicle, N=30). Masking of the clinical sites as to treatment group is being maintained in two ways. Study medication is masked by placing the treatment kits including study medication and supplies for the posterior juxtascleral administration in sealed opaque boxes identified by patient number only. The boxes were numbered sequentially at each clinical site and patients were assigned the next available sequential number upon enrollment. The randomization was built into the sequential numbering of the treatment kits and blocked within each site to maintain equal distribution across treatment assignments. Masking as to treatment group is also being maintained at each site by having an unmasked injecting investigator perform the treatments and a masked examining investigator perform the subsequent evaluations. Upon enrollment of each patient, anecortave acetate or placebo was administered behind the eye as a 0.5 mL posterior juxtascleral injection onto the outer surface of the sclera near the macula using a specially designed cannula. The cannula is described in commonly owned U.S. Pat. No. 6,413,245B1.
(§2) Clinical efficacy data is being obtained from evaluations of best-corrected logMAR visual acuity and standardized fluorescein angiograms. Clinical safety data obtained from general physical examinations, laboratory evaluations of blood and urine, and complete ophthalmic examinations, including indocyanine green angiography, continue to be periodically evaluated by the Independent Safety Committee overseeing this study. Clinical data from evaluations for safety and efficacy performed at Day 1-2, Week 2, Week 6, Month 3, and Month 6 following patient randomization and treatment are reported here.
The primary efficacy outcome for this ongoing study is the mean change from Baseline in best-corrected logMAR visual acuity. […]

[2] = tested on: subfoveal CNV lesion secondary to AMD; assay: Clinical trial, CNV lesion surface areas from standardized fluorescein angiograms (DARC); assay type: in vivo, patients; details: for inhibition of lesion growth versus placebo: Month 6
Excerpt: as §1, §2
The primary efficacy outcome for this ongoing study is the mean change from Baseline in best-corrected logMAR visual acuity. Secondary efficacy outcomes are: the percentage of patients with preservation or maintenance of vision (defined as loss of less than three logMAR lines [less than 15 logMAR letters] of visual acuity); the percentage of patients with clinically significant worsening of vision (defined as a loss of at least three logMAR lines [at least 15 logMAR letters] of visual acuity); the percentage of patients with severe vision loss (defined as a loss of at least six logMAR lines [at least 30 logMAR letters] of visual acuity); and changes in CNV lesion characteristics (defined as total lesion area, total CNV and total classic CNV).
All efficacy analyses were based on the intent-to-treat principle. All patients received the medication to which they were assigned, and were analyzed accordingly. Last-observation-carry-forward was used to impute missing values. Baseline comparisons were tested using analysis of variance (for continuous outcomes) and Pearson's chi square (for binary outcomes). Changes from baseline in visual acuity and lesion parameters were tested in a repeated measures analysis of variance model with appropriate contrasts for the 6-month comparisons. Comparisons of binary outcomes at Month 6 were evaluated using Pearson's chi-square tests. All analyses of ocular outcomes are based on changes in the study (i.e., treated) eye.

[3] = Clinical trial, safety evaluation (ophthalmic and physical examinations, blood and urine); assay type: in vivo, patients
Excerpt: as §2
Following completion of the Month 6 visit by all patients, the accumulated safety data were evaluated by the Independent Safety Committee overseeing this study. […] The most common ocular changes reported were changes in lens opacity using the Lens Opacity Classification System (LOCS) II, and included reports of nuclear color, nuclear opalescence, cortical, and posterior subcapsular changes. Cataracts are a common intercurrent disorder in this patient population, and the changes seen were documented in all treatment groups and in contralateral (untreated) eyes. The cataractous changes reported were described as mild and typically unrelated to treatment. The second most common ocular change, a decrease in vision (defined as a decrease of ≧4 logMAR lines from the previous visit), is also a common problem in this patient population. These vision decreases occurred in all treatment groups and in the contralateral eye. Other ocular changes (occurring with a frequency greater than 5%) were ptosis, ocular pain, subconjunctival hemorrhage, ocular pruritis, ocular burning/stinging, pupil disorders, foreign body sensation, ocular hyperemia, and abnormal vision. These changes were reported in all four treatment groups, in both treated eyes and contralateral eyes, were characterized as primarily mild, were generally not attributed to treatment, and were transient in nature. The single report of an IOP increase (≧10 mmHg) from Baseline occurred in a patient treated with anecortave acetate 30 mg and was attributed to intercurrent illness. Of the ocular changes reported, those most frequently attributed to study treatment were ptosis, ocular pain, subconjunctival hemorrhage, ocular pruritis, and ocular burning/stinging. These treatment-related events were mostly mild, transient, and seen within all four treatment groups.
The most common non-ocular changes from Baseline reported for this study were hypertension, peripheral edema, depression, and arthritis, none of which were attributed to treatment.

[4] = Preclinical drug levels after slow-release depot adjacent to the posterior scleral surface; assay type: in vivo; details: data not shown
glucocorticoid receptor = biological target: T1, glucocorticoid receptor (Homo sapiens, UniProt P04150); details: preclinical data (refs 8,9); cited from earlier work
T1 sequence (P04150 1-777): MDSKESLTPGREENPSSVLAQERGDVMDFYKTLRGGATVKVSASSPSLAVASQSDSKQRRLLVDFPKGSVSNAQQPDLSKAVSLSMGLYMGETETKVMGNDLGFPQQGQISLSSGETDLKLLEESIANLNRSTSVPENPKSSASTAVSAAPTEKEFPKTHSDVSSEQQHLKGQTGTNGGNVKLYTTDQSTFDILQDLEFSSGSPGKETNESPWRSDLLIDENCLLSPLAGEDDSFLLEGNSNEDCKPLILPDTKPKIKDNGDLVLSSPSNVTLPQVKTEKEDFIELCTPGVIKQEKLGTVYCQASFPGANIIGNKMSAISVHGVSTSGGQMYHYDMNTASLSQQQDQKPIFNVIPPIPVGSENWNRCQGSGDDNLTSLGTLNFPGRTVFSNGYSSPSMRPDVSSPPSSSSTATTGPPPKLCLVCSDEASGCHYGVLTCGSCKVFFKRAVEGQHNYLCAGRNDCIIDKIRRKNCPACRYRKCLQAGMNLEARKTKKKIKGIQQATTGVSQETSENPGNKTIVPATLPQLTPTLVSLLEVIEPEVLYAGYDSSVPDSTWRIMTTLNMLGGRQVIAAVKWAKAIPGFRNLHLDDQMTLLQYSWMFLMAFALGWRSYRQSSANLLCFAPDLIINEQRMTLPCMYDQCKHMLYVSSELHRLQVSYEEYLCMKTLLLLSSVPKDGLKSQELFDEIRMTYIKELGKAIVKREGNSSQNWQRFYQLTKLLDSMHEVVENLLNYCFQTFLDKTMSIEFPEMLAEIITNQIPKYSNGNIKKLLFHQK

[5] = biological target: urokinase-like plasminogen activator (Homo sapiens, UniProt P00749); details: cited from earlier work
[6] = biological target: matrix metalloproteinase-3 (Homo sapiens, UniProt P08254); details: cited from earlier work
Sequence of matrix metalloproteinase-3 (P08254 100-477, species assumed): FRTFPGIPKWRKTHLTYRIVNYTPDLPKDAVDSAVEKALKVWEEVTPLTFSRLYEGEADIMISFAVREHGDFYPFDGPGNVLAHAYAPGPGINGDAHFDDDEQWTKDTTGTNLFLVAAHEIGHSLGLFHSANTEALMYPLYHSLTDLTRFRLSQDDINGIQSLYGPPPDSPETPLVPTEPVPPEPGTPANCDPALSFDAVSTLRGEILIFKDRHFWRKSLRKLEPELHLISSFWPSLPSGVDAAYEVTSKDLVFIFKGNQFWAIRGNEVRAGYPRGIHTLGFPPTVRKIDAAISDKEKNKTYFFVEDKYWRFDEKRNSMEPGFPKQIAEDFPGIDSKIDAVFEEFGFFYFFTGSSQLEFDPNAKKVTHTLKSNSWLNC

[7] = tested on: plasminogen activator inhibitor 1; details: cited from earlier work
[8] = 3 mg single administration, n = 32
[9] = 15 mg single administration, n = 33
[10] = 15 mg single administration, n = 33, listed as Anec Acet
[11] = 30 mg single administration, n = 33

CC(=O)OCC(=O)[C@@]1(O)CC[C@H]2[C@@H]3CCC4=CC(=O)CC[C@]4(C)C3=CC[C@@]21C [anecortave acetate, 4,9(11)-pregnadien-17α,21-diol-3,20 dione-21 acetate]
LogMAR Change 1 Line Improved, % of patients [1, 8]: 0%
LogMAR Change 1 Line Worsened, % of patients [1, 8]: 12.5%
LogMAR Change 2 Lines Worsened, % of patients [1, 8]: 18.8%
LogMAR Change No Change, % of patients [1, 8]: 37.5%
LogMAR Change ≧2 Lines Improved, % of patients [1, 8]: 6%
LogMAR Change ≧3 Lines Worsened (clinically significant vision loss), % of patients [1, 8]: 25.0%
LogMAR Change ≧2 Lines Improved, % of patients ([1]; 3 mg single administration, n = 32, listed as Anec Acet): 6.3%
<6 Lines Worse, % of patients ([1]; 3 mg, Month 6): 78.13%
Severe Vision Loss, ≧6 Lines Worse, % of patients ([1]; 3 mg, Month 6): 21.88%
mean change at Month 6 from Baseline in logMAR visual acuity, versus placebo ([1]; 3 mg, statistical significance not achieved): Trends also favor treatment
average final logMAR value ([1]; 15 mg single administration, Month 6 (20/125 Snellen equivalent; Baseline 0.73)): 0.81 logMAR
LogMAR Change 1 Line Improved, % of patients [1, 9]: 3.0%
LogMAR Change 1 Line Worsened, % of patients [1, 9]: 12.1%
LogMAR Change 2 Lines Worsened, % of patients [1, 9]: 30.3%
LogMAR Change No Change, % of patients [1, 9]: 24.2%
LogMAR Change ≧2 Lines Improved, % of patients [1, 9]: 18%
LogMAR Change ≧3 Lines Worsened (clinically significant vision loss), % of patients [1, 9]: 12%
LogMAR Change ≧2 Lines Improved, % of patients [1, 10]: 18.2%
LogMAR Change ≧3 Lines Worsened (clinically significant vision loss), % of patients [1, 10]: 12.1%
mean change from Baseline logMAR visual acuity ([1]; 15 mg single treatment, Month 6): +0.08 logMAR score
<6 Lines Worse, % of patients ([1]; 15 mg, Month 6): 96.97%
Severe Vision Loss, ≧6 Lines Worse, % of patients ([1]; 15 mg, Month 6): 3.03%
percentage of patients with preservation of vision (decrease of less than three logMAR lines from Baseline) ([1]; 15 mg, Month 6, overall analysis): 88%
percentage of patients with preservation of vision (decrease of less than three logMAR lines from Baseline) ([1]; 15 mg, Month 6, subgroup with predominantly classic CNV lesion): 92%
mean change at Month 6 from Baseline in logMAR visual acuity, versus placebo ([1]; 15 mg, p=0.0032): statistically superior to placebo treatment
LogMAR Change 1 Line Improved, % of patients [1, 11]: 12.1%
LogMAR Change 1 Line Worsened, % of patients [1, 11]: 15.2%
LogMAR Change 2 Lines Worsened, % of patients [1, 11]: 15.2%
LogMAR Change No Change, % of patients [1, 11]: 30.3%
LogMAR Change ≧2 Lines Improved, % of patients [1, 11]: 3%
LogMAR Change ≧3 Lines Worsened (clinically significant vision loss), % of patients [1, 11]: 24.2%
LogMAR Change ≧2 Lines Improved, % of patients ([1]; 30 mg single administration, n = 33, listed as Anec Acet): 3.0%
<6 Lines Worse, % of patients ([1]; 30 mg, Month 6): 75.76%
Severe Vision Loss, ≧6 Lines Worse, % of patients ([1]; 30 mg, Month 6): 24.24%
mean change at Month 6 from Baseline in logMAR visual acuity, versus placebo ([1]; 30 mg, statistical significance not achieved): Trends also favor treatment
inhibition of lesion growth versus placebo ([2]; 3 mg): trend favoring
inhibition of total CNV surface area growth, percent change from Baseline, versus placebo ([2]; 15 mg, Month 6, p=0.0001): statistically superior to placebo treatment
inhibition of total lesion surface area growth, percent change from Baseline, versus placebo ([2]; 15 mg, Month 6, p=0.0005): statistically superior to placebo treatment
inhibition of total classic CNV surface area growth, percent change from Baseline, versus placebo ([2]; 15 mg, Month 6, p=0.0008): statistically superior to placebo treatment
inhibition of lesion growth versus placebo ([2]; 30 mg): trend favoring
reports of IOP increase (≧10 mmHg) from Baseline ([3]; 30 mg, attributed to intercurrent illness): single report
changes in blood chemistry, hematology, or urinalysis ([3]; all doses, 6 months): No treatment-related changes
safety evaluation by the Independent Safety Committee ([3]; all doses, after Month 6 visit): no clinically relevant medication-related or administration-related safety concerns were identified
ocular corticosteroid side effects (elevated intraocular pressure or accelerated cataract progression) ([3]; clinical study, at least 6 months exposure): no clinical evidence of ocular corticosteroid side effects
duration of therapeutic drug levels in the adjacent choroid and retina [4]: up to 6 months
corticosteroid activity (glucocorticoid receptor): no measurable corticosteroid activity
effect on urokinase-like plasminogen activator [5]: inhibits
effect on matrix metalloproteinase-3 [6]: inhibits
effect on plasminogen activator inhibitor 1 [7]: upregulates
